*1 amine or outer side, *2 acyl side, *3 side chain or, on linkers, in order; H or OH if unused. Where a SMILES comes first, the peptide text is derived from it. Side-chain parts run from the residue outwards. [ ]: non-standard residue; d: D form. The star is where a group is joined. γGlu = O=C(O)[C@H](CCC(=O)[*:2])N[*:1]; 1Nal = N[C@@H](Cc1cccc2ccccc12)C(=O)O; Stearoyl = CCCCCCCCCCCCCCCCCC(=O)*; Palmitoyl = CCCCCCCCCCCCCCCC(=O)*; Nle = CCCC[C@H](N)C(=O)O; AEEA = NCCOCCOCC(=O)O; Aib = CC(C)(N)C(=O)O

For seven compounds, EC50 and Emax results are on record in patent US10988523B2, “Modified lipidated Relaxin B chain peptides and their therapeutic use” (Sanofi, priority 2018, dated 2021).

In the assay the target is T1, RXFP1 (Homo sapiens, UniProt Q9HBX9).
T1 construct: OVCAR5 cells expressing endogenous RXFP1; endogenous in cells; host or cells: OVCAR5 cells
T1 sequence (Q9HBX9 1-757): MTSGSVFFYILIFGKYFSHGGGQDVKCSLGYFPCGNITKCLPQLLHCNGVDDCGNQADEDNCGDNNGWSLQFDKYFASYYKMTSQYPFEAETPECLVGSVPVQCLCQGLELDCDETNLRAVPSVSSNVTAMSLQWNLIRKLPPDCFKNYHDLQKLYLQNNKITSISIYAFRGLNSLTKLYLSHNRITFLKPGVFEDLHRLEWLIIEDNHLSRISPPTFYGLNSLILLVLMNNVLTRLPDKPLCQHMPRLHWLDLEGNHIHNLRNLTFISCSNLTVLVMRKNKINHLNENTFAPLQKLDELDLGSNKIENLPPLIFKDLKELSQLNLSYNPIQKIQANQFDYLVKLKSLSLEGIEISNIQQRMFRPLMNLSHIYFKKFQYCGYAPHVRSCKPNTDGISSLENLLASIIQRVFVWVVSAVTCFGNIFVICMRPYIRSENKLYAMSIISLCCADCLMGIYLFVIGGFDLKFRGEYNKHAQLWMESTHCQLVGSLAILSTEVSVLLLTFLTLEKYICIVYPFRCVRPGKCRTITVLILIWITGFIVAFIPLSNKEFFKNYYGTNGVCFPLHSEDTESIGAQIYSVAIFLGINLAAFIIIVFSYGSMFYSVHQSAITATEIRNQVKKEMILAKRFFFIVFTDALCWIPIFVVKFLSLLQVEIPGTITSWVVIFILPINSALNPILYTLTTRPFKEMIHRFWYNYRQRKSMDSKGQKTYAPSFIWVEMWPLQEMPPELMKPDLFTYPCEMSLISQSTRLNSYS
Nature of the assay: OVCAR5 cAMP assay (HTRF), RXFP1 agonist activity. The note with it: for EC50: OVCAR5 cells, cAMP HTRF, read-out: EC50 (nM), OVCAR 5 cells (cAMP); for Emax: OVCAR-5, maximal cAMP relative to H2-relaxin maximum (100%), read-out: EMax, OVCAR 5 cells (cAMP). Format: cell-based. In short, it runs like this: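 OVCAR5 cells (endogenous RXFP1) pretreated 40 min at 37° C with 1 mM IBMX, then exposed to peptides in serum-free medium for 30 min at 37° C. Lysate cAMP read by HTRF; EC50 from variable-slope sigmoidal fit; Emax as % of H2-relaxin maximal cAMP in same run.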
On the technique in general: cAMP levels reflect the balance of adenylyl cyclase and phosphodiesterase activity.

What is called EC50 is the concentration giving half of the maximal effect. Usually Emax stands for the size of the effect at its maximum, as opposed to the concentration needed. On to `CCCCCCCCCCCCCCCCCC(=O)N[C@@H](CCC(=O)NCCOCCOCC(=O)N[C@@H](CCC(=O)N[C@@H](CCC(=O)NCCOCCOCC(=O)NCCOCCOCC(=O)NCCCC[C@H](NC(=O)[C@H](CCCCN)NC(=O)[C@H](CCCCN)NC(=O)[C@H](CCCNC(=N)N)NC(=O)C(C)(C)NC(=O)[C@H](CO)NC(=O)[C@H](Cc1c[nH]c2ccccc12)NC(=O)[C@@H](NC(=O)[C@H](CO)NC(=O)[C@H](CCCC)NC(=O)CNC(=O)[C@H](CCC(=O)O)NC(=O)C(C)(C)NC(=O)C(C)(C)NC(=O)[C@@H](NC(=O)[C@H](CCC(N)=O)NC(=O)[C@H](C)NC(=O)[C@H](CCCNC(=N)N)NC(=O)[C@@H](NC(=O)[C@H](CCCCN)NC(=O)[C@H](CCC(=O)O)NC(=O)[C@H](CCCNC(=N)N)NC(=O)CNC(=O)[C@H](CCC(=O)O)NC(=O)[C@H](CC(C)C)NC(C)=O)C(C)C)[C@@H](C)CC)[C@@H](C)O)C(N)=O)C(=O)O)C(=O)O)C(=O)O` [compound 99] (Ac-LEGREKVRAQI[Aib][Aib]EG[Nle]STWS[Aib]RKKK([AEEA-AEEA-γGlu-γGlu-AEEA-γGlu-Stearoyl])-NH2), for which the EC50 came out at 0.01 nM and the Emax came out at 87%.

Turning to `CCCCCCCCCCCCCCCCCC(=O)N[C@@H](CCC(=O)NCCOCCOCC(=O)N[C@@H](CCC(=O)N[C@@H](CCC(=O)N[C@@H](CCC(=O)NCCOCCOCC(=O)NCCOCCOCC(=O)NCCCC[C@H](NC(=O)[C@H](CCCCN)NC(=O)[C@H](CCCCN)NC(=O)[C@H](CCCNC(=N)N)NC(=O)C(C)(C)NC(=O)[C@H](CO)NC(=O)[C@H](Cc1cccc2ccccc12)NC(=O)[C@@H](NC(=O)[C@H](CO)NC(=O)[C@H](CCCC)NC(=O)CNC(=O)[C@H](CCC(=O)O)NC(=O)C(C)(C)NC(=O)C(C)(C)NC(=O)[C@@H](NC(=O)[C@H](CCCCNC(C)=O)NC(=O)[C@H](C)NC(=O)[C@H](CCCNC(=N)N)NC(=O)[C@@H](NC(=O)[C@H](CCCCN)NC(=O)[C@H](CCC(=O)O)NC(=O)[C@H](CCCNC(=N)N)NC(=O)CNC(=O)[C@H](CCC(=O)O)NC(=O)[C@H](CC(C)C)NC(C)=O)C(C)C)[C@@H](C)CC)[C@@H](C)O)C(N)=O)C(=O)O)C(=O)O)C(=O)O)C(=O)O` [compound 103] (Ac-LEGREKVRAK(Ac)I[Aib][Aib]EG[Nle]ST[1Nal]S[Aib]RKKK([AEEA-AEEA-γGlu-γGlu-γGlu-AEEA-γGlu-Stearoyl])-NH2), the EC50 came out at 0.09 nM and the Emax came to 79%. For `CCCCCCCCCCCCCCCCCC(=O)N[C@@H](CCC(=O)NCCOCCOCC(=O)NCCOCCOCC(=O)N[C@@H](CCC(=O)N[C@@H](CCC(=O)NCCCC[C@H](NC(=O)[C@H](CCCCN)NC(=O)[C@H](CCCNC(=N)N)NC(=O)C(C)(C)NC(=O)[C@H](CO)NC(=O)[C@H](Cc1c[nH]c2ccccc12)NC(=O)[C@@H](NC(=O)[C@H](CO)NC(=O)[C@H](CCCC)NC(=O)CNC(=O)[C@H](CCC(=O)O)NC(=O)C(C)(C)NC(=O)C(C)(C)NC(=O)[C@@H](NC(=O)[C@H](CCC(N)=O)NC(=O)[C@H](C)NC(=O)[C@H](CCCNC(=N)N)NC(=O)[C@@H](NC(=O)[C@H](CCCCN)NC(=O)[C@H](CCC(=O)O)NC(=O)[C@H](CCCNC(=N)N)NC(=O)CNC(=O)[C@H](CCC(=O)O)NC(=O)[C@H](CC(C)C)NC(C)=O)C(C)C)[C@@H](C)CC)[C@@H](C)O)C(N)=O)C(=O)O)C(=O)O)C(=O)O` [compound 104] (Ac-LEGREKVRAQI[Aib][Aib]EG[Nle]STWS[Aib]RKK([γGlu-γGlu-AEEA-AEEA-γGlu-Stearoyl])-NH2) the same measures were 0.16 nM and 89%.

With `CCCCCCCCCCCCCCCCCC(=O)N[C@@H](CCC(=O)NCCOCCOCC(=O)NCCOCCOCC(=O)N[C@@H](CCC(=O)N[C@@H](CCC(=O)NCCCC[C@H](NC(=O)[C@H](CCCCN)NC(=O)[C@H](CCCCN)NC(=O)[C@H](CCCNC(=N)N)NC(=O)C(C)(C)NC(=O)[C@H](CO)NC(=O)[C@H](Cc1c[nH]c2ccccc12)NC(=O)[C@@H](NC(=O)[C@H](CO)NC(=O)[C@H](CCCC)NC(=O)CNC(=O)[C@H](CCC(=O)O)NC(=O)C(C)(C)NC(=O)C(C)(C)NC(=O)[C@@H](NC(=O)[C@H](CCC(N)=O)NC(=O)[C@H](C)NC(=O)[C@H](CCCNC(=N)N)NC(=O)[C@@H](NC(=O)[C@H](CCCCN)NC(=O)[C@H](CCC(=O)O)NC(=O)[C@H](CCCNC(=N)N)NC(=O)CNC(=O)[C@H](CCC(=O)O)NC(=O)[C@H](CC(C)C)NC(C)=O)C(C)C)[C@@H](C)CC)[C@@H](C)O)C(N)=O)C(=O)O)C(=O)O)C(=O)O` [compound 105] (Ac-LEGREKVRAQI[Aib][Aib]EG[Nle]STWS[Aib]RKKK([γGlu-γGlu-AEEA-AEEA-γGlu-Stearoyl])-NH2), the EC50 turned out to be 0.03 nM and the Emax came to 88%. Turning to `CCCCCCCCCCCCCCCCCC(=O)N[C@@H](CCC(=O)NCCOCCOCC(=O)NCCOCCOCC(=O)NCCOCCOCC(=O)N[C@@H](CCC(=O)N[C@@H](CCC(=O)NCCCC[C@H](NC(=O)[C@H](CCCCN)NC(=O)[C@H](CCCCN)NC(=O)[C@H](CCCNC(=N)N)NC(=O)C(C)(C)NC(=O)[C@H](CO)NC(=O)[C@H](Cc1c[nH]c2ccccc12)NC(=O)[C@@H](NC(=O)[C@H](CO)NC(=O)[C@H](CCCC)NC(=O)CNC(=O)[C@H](CCC(=O)O)NC(=O)C(C)(C)NC(=O)C(C)(C)NC(=O)[C@@H](NC(=O)[C@H](CCC(N)=O)NC(=O)[C@H](C)NC(=O)[C@H](CCCNC(=N)N)NC(=O)[C@@H](NC(=O)[C@H](CCCCN)NC(=O)[C@H](CCC(=O)O)NC(=O)[C@H](CCCNC(=N)N)NC(=O)CNC(=O)[C@H](CCC(=O)O)NC(=O)[C@H](CC(C)C)NC(C)=O)C(C)C)[C@@H](C)CC)[C@@H](C)O)C(N)=O)C(=O)O)C(=O)O)C(=O)O` [compound 106] (Ac-LEGREKVRAQI[Aib][Aib]EG[Nle]STWS[Aib]RKKK([γGlu-γGlu-AEEA-AEEA-AEEA-γGlu-Stearoyl])-NH2), the Emax turned out to be 93%. As to `CCCCCCCCCCCCCCCC(=O)N[C@@H](CCC(=O)NCCCC[C@H](NC(=O)CC[C@H](NC(=O)CC[C@H](NC(=O)CC[C@H](NC(=O)COCCOCCNC(=O)COCCOCCNC(=O)COCCOCCNC(=O)COCCOCCNC(=O)[C@H](CCCCN)NC(=O)[C@H](CCCCN)NC(=O)[C@H](CCCCN)NC(=O)[C@H](CCCNC(=N)N)NC(=O)C(C)(C)NC(=O)[C@H](CO)NC(=O)[C@H](Cc1c[nH]c2ccccc12)NC(=O)[C@@H](NC(=O)[C@H](CO)NC(=O)[C@H](CCCC)NC(=O)CNC(=O)[C@H](CCC(=O)O)NC(=O)C(C)(C)NC(=O)C(C)(C)NC(=O)[C@@H](NC(=O)[C@H](CCC(N)=O)NC(=O)[C@H](C)NC(=O)[C@H](CCCNC(=N)N)NC(=O)[C@@H](NC(=O)[C@H](CCCCN)NC(=O)[C@H](CCC(=O)O)NC(=O)[C@H](CCCNC(=N)N)NC(=O)CNC(=O)[C@H](CCC(=O)O)NC(=O)[C@H](CC(C)C)NC(C)=O)C(C)C)[C@@H](C)CC)[C@@H](C)O)C(=O)O)C(=O)O)C(=O)O)C(N)=O)C(=O)O` [compound 108] (Ac-LEGREKVRAQI[Aib][Aib]EG[Nle]STWS[Aib]RKKK[AEEA][AEEA][AEEA][AEEA][γGlu][γGlu][γGlu]K([γGlu-Palmitoyl])-NH2), the EC50 stood at 0.15 nM and the Emax came out at 94%. As to `CCCCCCCCCCCCCCCCCC(=O)N[C@@H](CCC(=O)N[C@@H](CCC(=O)N[C@@H](CCC(=O)N[C@@H](CCC(=O)N[C@@H](CCC(=O)NCCOCCOCC(=O)NCCOCCOCC(=O)NCCOCCOCC(=O)NCCCC[C@H](NC(=O)[C@H](CCCCN)NC(=O)[C@H](CCCCN)NC(=O)[C@H](CCCNC(=N)N)NC(=O)C(C)(C)NC(=O)[C@H](CO)NC(=O)[C@H](Cc1c[nH]c2ccccc12)NC(=O)[C@@H](NC(=O)[C@H](CO)NC(=O)[C@H](CCC(N)=O)NC(=O)CNC(=O)[C@H](CCC(=O)O)NC(=O)C(C)(C)NC(=O)C(C)(C)NC(=O)[C@@H](NC(=O)[C@H](CCCCNC(C)=O)NC(=O)[C@H](C)NC(=O)[C@H](CCCNC(=N)N)NC(=O)[C@@H](NC(=O)[C@H](CCCCN)NC(=O)[C@H](CCC(=O)O)NC(=O)[C@H](CCCNC(=N)N)NC(=O)CNC(=O)[C@H](CCC(=O)O)NC(=O)[C@H](CC(C)C)NC(C)=O)C(C)C)[C@@H](C)CC)[C@@H](C)O)C(N)=O)C(=O)O)C(=O)O)C(=O)O)C(=O)O)C(=O)O` [compound 111] (Ac-LEGREKVRAK(Ac)I[Aib][Aib]EGQSTWS[Aib]RKKK([AEEA-AEEA-AEEA-γGlu-γGlu-γGlu-γGlu-γGlu-Stearoyl])-NH2), the EC50 is 0.21 nM and the Emax turned out to be 92%.
